Measurements reported in patent US10077261B2, “Imidazolin-5-one derivative useful as FASN inhibitors for the treatment of cancer” (Janssen Pharmaceutica NV, priority 2012, dated 2018).

Biological target: T1, hFASN enzyme (full length) (Homo sapiens, UniProt P49327)
T1 construct: 10 μL hFASN enzyme (full length, 300 ng, purified in house); made in house
Experiment: Fatty Acid Synthase (FASN) inhibition scintillation proximity assay
Format: biochemical
Conditions: for inhibition at 10 µM: read-out: Human FASN % inhibition @ 10 μM, 10 μM test compound; for IC50: read-out: Human FASN pIC50 (converted)
Procedure, shortened: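 Full-length in-house purified enzyme (300 ng) was tested in 100 mM KH2PO4 pH 7.5, 1 mM DTT with ³H-acetyl-CoA and malonyl-CoA as substrates; compounds ranged 0.01–30 μM. Reactions were stopped with streptavidin imaging beads, read by LEADseeker at 610 nm, and fitted to a 4-parameter logistic curve.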

T1 sequence (P49327 whole entry): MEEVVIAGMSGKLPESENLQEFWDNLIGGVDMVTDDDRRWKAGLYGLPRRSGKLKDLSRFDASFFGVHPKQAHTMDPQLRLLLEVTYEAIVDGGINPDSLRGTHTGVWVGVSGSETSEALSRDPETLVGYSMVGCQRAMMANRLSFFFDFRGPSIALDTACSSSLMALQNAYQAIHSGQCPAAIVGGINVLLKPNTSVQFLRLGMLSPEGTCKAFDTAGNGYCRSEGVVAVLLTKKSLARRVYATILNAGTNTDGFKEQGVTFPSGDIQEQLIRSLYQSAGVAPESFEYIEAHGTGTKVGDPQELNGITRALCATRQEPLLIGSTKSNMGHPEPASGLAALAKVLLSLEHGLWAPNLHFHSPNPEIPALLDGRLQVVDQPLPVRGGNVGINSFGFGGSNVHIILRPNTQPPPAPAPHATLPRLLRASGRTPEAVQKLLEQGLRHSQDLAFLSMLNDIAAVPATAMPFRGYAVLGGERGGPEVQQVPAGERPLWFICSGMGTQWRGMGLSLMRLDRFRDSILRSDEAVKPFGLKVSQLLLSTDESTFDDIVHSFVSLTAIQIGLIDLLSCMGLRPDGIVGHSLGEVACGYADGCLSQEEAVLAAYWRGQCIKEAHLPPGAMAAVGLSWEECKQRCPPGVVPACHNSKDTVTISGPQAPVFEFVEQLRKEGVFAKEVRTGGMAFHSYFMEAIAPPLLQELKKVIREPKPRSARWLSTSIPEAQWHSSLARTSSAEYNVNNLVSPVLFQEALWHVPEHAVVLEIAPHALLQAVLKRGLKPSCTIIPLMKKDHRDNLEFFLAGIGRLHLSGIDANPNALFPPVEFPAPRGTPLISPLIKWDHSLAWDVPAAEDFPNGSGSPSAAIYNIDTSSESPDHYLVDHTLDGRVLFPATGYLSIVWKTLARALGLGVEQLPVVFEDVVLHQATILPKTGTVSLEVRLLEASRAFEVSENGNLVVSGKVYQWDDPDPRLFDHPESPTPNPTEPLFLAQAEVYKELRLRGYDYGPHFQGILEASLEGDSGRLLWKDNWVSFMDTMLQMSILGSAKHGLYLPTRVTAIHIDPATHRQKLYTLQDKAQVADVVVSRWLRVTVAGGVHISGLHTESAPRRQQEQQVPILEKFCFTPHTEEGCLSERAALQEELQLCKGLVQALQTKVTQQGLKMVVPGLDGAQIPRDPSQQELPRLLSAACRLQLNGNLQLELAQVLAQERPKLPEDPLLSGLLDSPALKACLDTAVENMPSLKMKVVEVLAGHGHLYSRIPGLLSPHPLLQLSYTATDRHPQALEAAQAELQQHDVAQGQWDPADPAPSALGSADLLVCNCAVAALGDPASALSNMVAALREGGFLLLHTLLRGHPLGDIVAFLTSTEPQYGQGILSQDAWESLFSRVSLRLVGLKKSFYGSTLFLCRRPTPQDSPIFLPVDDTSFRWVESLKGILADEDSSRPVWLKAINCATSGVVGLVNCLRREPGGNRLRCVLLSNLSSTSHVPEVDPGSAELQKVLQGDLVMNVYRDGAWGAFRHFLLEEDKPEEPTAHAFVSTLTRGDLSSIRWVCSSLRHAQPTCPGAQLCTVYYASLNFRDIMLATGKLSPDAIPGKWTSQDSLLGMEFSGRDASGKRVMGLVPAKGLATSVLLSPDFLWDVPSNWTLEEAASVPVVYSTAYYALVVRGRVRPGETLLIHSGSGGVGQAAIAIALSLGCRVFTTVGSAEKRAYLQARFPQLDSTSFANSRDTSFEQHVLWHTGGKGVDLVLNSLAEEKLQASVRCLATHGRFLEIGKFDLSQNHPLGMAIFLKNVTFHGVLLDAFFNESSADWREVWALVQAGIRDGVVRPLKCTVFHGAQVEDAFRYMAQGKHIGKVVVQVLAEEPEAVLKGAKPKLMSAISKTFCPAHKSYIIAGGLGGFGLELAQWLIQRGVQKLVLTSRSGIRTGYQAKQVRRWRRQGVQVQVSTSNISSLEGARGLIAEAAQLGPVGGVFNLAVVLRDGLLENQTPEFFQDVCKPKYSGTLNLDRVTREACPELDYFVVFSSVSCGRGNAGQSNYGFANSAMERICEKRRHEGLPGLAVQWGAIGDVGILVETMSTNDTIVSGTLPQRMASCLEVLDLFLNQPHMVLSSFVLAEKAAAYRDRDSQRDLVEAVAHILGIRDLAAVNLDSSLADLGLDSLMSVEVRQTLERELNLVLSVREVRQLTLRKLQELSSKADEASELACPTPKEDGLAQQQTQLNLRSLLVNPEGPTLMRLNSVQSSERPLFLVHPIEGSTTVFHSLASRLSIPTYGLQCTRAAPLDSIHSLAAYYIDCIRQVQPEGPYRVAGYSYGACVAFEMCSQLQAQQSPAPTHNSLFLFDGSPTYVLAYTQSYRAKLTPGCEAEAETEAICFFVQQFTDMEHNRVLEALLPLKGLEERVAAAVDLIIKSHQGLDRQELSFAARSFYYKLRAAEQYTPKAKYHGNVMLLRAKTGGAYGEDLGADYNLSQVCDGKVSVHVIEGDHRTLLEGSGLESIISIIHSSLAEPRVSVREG

Row | SMILES | inhibition at 10 µM | IC50 | Human FASN pIC50 (hFASN enzyme, full length, "~" means standard error of the pIC50 is larger than 0.5)
1 | Cc1cc(C2=NC3(CC3)C(=O)N2CC2CN(C(=O)C3CC3)C2)ccc1-c1ccc2c(cnn2C)c1 [compound 436, 6-{[1-(Cyclopropylcarbonyl)azetidin-3-yl]methyl}-5-[3-methyl-4-(1-methyl-1H-indazol-5-yl)phenyl]-4,6-diazaspiro[2.4]hept-4-en-7-one] | 43% | ~10 µM | 
2 | O=C(C1CC1)N1CC[C@@H](CN2C(=O)C3(CC3)N=C2c2ncc(-c3ccc4occc4c3)cn2)C1 [compound 437, 5-[5-(1-Benzofuran-5-yl)pyrimidin-2-yl]-6-{[(3R)-1-(cyclopropylcarbonyl)pyrrolidin-3-yl]methyl}-4,6-diazaspiro[2.4]hept-4-en-7-one] | 72% | 2.75 µM | 
3 | Cn1ncc2cc(-c3cnc(C4=NC5(CC5)C(=O)N4C[C@@H]4CCN(C(=O)C5CC5)C4)nc3)ccc21 [compound 438, 6-{[(3R)-1-(Cyclopropylcarbonyl)pyrrolidin-3-yl]methyl}-5-[5-(1-methyl-1H-indazol-5-yl)pyrimidin-2-yl]-4,6-diazaspiro[2.4]hept-4-en-7-one] | 65% | 3.31 µM | 
4 | O=C(C1CC1)N1CC[C@@H](CN2C(=O)C3(CC3)N=C2c2cnc(-c3ccc4occc4c3)cn2)C1 [compound 439, 5-[5-(1-Benzofuran-5-yl)pyrazin-2-yl]-6-{[(3R)-1-(cyclopropylcarbonyl)pyrrolidin-3-yl]methyl}-4,6-diazaspiro[2.4]hept-4-en-7-one] | 48% | 9.55 µM | 
5 | Cn1ncc2cc(-c3ccc(C4=NC5(CC5)C(=O)N4CC4CN(C(=O)C5CC5)C4)cc3F)ccc21 [compound 441, 6-{[1-(Cyclopropylcarbonyl)azetidin-3-yl]methyl}-5-[3-fluoro-4-(1-methyl-1H-indazol-5-yl)phenyl]-4,6-diazaspiro[2.4]hept-4-en-7-one] | 63% | 3.98 µM | 
6 | Cc1cc2cc(-c3ccc(C4=NC5(CC5)C(=O)N4CC4CN(C(=O)C5CC5)C4)cc3C)ccc2s1 [compound 446, 6-{[1-(Cyclopropylcarbonyl)azetidin-3-yl]methyl}-5-[3-methyl-4-(2-methyl-1-benzothiophen-5-yl)phenyl]-4,6-diazaspiro[2.4]hept-4-en-7-one] | 60% | 5.01 µM | 
7 | Cc1cc(C2=NC3(CC3)C(=O)N2CC2CN(C(=O)C3CC3)C2)ccc1-c1ccc2sc(C)c(C)c2c1 [compound 447, 6-{[1-(Cyclopropylcarbonyl)azetidin-3-yl]methyl}-5-[4-(2,3-dimethyl-1-benzothiophen-5-yl)-3-methylphenyl]-4,6-diazaspiro[2.4]hept-4-en-7-one] | 79% | 1.2 µM | 
8 | Cc1cc(C2=NC3(CC3)C(=O)N2CC2CN(C(=O)C3CC3)C2)ccc1-c1ccc2[nH]ncc2c1 [compound 448, 6-{[1-(Cyclopropylcarbonyl)azetidin-3-yl]methyl}-5-[4-(1H-indazol-5-yl)-3-methylphenyl]-4,6-diazaspiro[2.4]hept-4-en-7-one] | 50% | 8.51 µM | 
9 | O=C(C1CC1)N1CC(CN2C(=O)C3(CC3)N=C2c2ccc(-c3ccc4[nH]ncc4c3)c(F)c2)C1 [compound 451, 6-{[1-(Cyclopropylcarbonyl)azetidin-3-yl]methyl}-5-[3-fluoro-4-(1H-indazol-5-yl)phenyl]-4,6-diazaspiro[2.4]hept-4-en-7-one] | 82% | 1.26 µM | 
10 | CC(C)n1ncc2cc(-c3ccc(C4=NC5(CC5)C(=O)N4C[C@@H]4CCN(C(=O)C5CC5)C4)cc3)ccc21 [compound 454, 6-{[(3R)-1-(Cyclopropylcarbonyl)pyrrolidin-3-yl]methyl}-5-{4-[1-(1-methylethyl)-1H-indazol-5-yl]phenyl}-4,6-diazaspiro[2.4]hept-4-en-7-one] | 53% | ~6.03 µM | 

The next lines start with the values.

Row | inhibition at 10 µM | IC50 | Human FASN pIC50 (hFASN enzyme, full length, "~" means standard error of the pIC50 is larger than 0.5) | SMILES
11 | 65% | 6.92 µM |  | O=C(C1CC1)N1CC[C@@H](CN2C(=O)C3(CC3)N=C2c2ccc(-c3ccc4c(c3)OCCO4)cc2)C1 [compound 456, 6-{[(3R)-1-(Cycloprop-ylcarbonyl)pyrrolidin-3-yl]methyl}-5-[4-(2,3-dihydro-1,4-benzodioxin-6-yl)phenyl]-4,6-diazaspiro[2.4]hept-4-en-7-one]
12 | 48% | 8.13 µM |  | O=C(C1CC1)N1CC[C@@H](CN2C(=O)C3(CC3)N=C2c2cnc(-c3ccc4occc4c3)nc2)C1 [compound 458, 5-[2-(1-Benzofuran-5-yl)pyrimidin-5-yl]-6-{[(3R)-1-(cyclopropylcarbonyl)pyrrolidin-3-yl]methyl}0-4,6-diazaspiro[2.4]hept-4-en-7-one]
13 | 43% |  | 5.06 | Cn1ncc2cc(-c3ncc(C4=NC5(CC5)C(=O)N4C[C@@H]4CCN(C(=O)C5CC5)C4)cn3)ccc21 [compound 459, 6-{[(3R)-1-(Cyclopropylcarbonyl)pyrrolidin-3-yl]methyl}-5-[2-(1-methyl-1H-indazol-5-yl)pyrimidin-5-yl]-4,6-diazaspiro[2.4]hept-4-en-7-one]
14 | 63% | 3.09 µM |  | Cc1cc(C2=NC3(CC3)C(=O)N2CC2CN(C(=O)C3CC3)C2)ccc1-c1ccc2oc(C#N)cc2c1 [compound 460, 5-[4-(6-{[1-(Cyclopropylcarbonyl)azetidin-3-yl]methyl}-7-oxo-4,6-diazaspiro[2.4]hept-4-en-5-yl)-2-methylphenyl]-1-benzofuran-2-carbonitrile]
15 | 66% | 4.07 µM |  | O=C(C1CC1)N1CC[C@@H](CN2C(=O)C3(CC3)N=C2c2ccc(-c3ccc4c(c3)CCCO4)cc2)C1 [compound 464, 6-{[(3R)-1-(Cyclopropylcarbonyl)pyrrolidin-3-yl]methyl}-5-[4-(3,4-dihydro-2H-chromen-6-yl)phenyl]-4,6-diazaspiro[2.4]hept-4-en-7-one]
16 | 67% | 3.09 µM |  | N#Cc1cc2cc(-c3ccc(C4=NC5(CC5)C(=O)N4CC4CN(C(=O)C5CC5)C4)cc3F)ccc2o1 [compound 477, 5-[4-(6-{[1-(Cyclopropylcarbonyl)azetidin-3-yl]methyl}-7-oxo-4,6-diazaspiro[2.4]hept-4-en-5-yl)-2-fluorophenyl]-1-benzofu8ran-2-carbonitrile]
17 | 92% | 1.38 µM |  | O=C(C1CC1)N1CC[C@@H](CN2C(=O)C3(CC3)N=C2c2ccc(-c3cc4cc(Br)ccc4cn3)cc2)C1 [compound 478, 5-[4-(6-Bromoisoquinolin-3-yl)phenyl]-6-{[(3R)-1-(cyclopropylcarbonyl)pyrrolidin-3-yl]methyl}-4,6-diazaspiro[2.4]hept-4-en-7-one]
18 | 68% | 2.19 µM |  | O=C(C1CC1)N1CC(CN2C(=O)C3(CC3)N=C2c2ccc(-c3ccc4nccnc4c3)cc2)C1 [compound 481, 6-{[1-(Cyclopropylcarbonyl)azetidin-3-yl]methyl}-5-(4-quinoxalin-6-ylphenyl)-4,6-diazaspiro[2.4]hept-4-en-7-one]
19 | 76% | 1.32 µM |  | O=C(C1CC1)N1CC(CN2C(=O)C3(CC3)N=C2c2ccc(-c3ccc(N4CCCC4)nc3)cc2)C1 [compound 482, 6-{[1-(Cyclopropylcarbonyl)azetidin-3-yl]methyl}-5-[4-(6-pyrrolidin-1-ylpyridin-3-yl)phenyl]-4,6-diazaspiro[2.4]hept-4-en-7-one]
20 | 81% | 1.17 µM |  | Cn1nc2ccc(-c3ccc(C4=NC5(CC5)C(=O)N4C[C@@H]4CCN(C(=O)C5CC5)C4)cc3)cc2c1CO [compound 487, 6-{[(3R)-1-(Cyclopropylcarbonyl)pyrrolidin-3-yl]methyl}-5-{4-[3-(hydroxymethyl)-2-methyl-2H-indazol-5-yl]phenyl}-4,6-diazaspiro[2.4]hept-4-en-7-one]
21 | 77% | 1 µM |  | Cc1cc(-c2ccc(C3=NC4(CC4)C(=O)N3CC3CN(C(=O)C4CC4)C3)cc2)cc2cnn(C)c12 [compound 492, 6-{[1-(Cyclopropylcarbonyl)azetidin-3-yl]methyl}-5-[4-(1,7-dimethyl-1H-indazol-5-yl)phenyl]-4,6-dazaspiro[2.4]hept-4-en-7-one]
22 | 74% | ~2.75 µM |  | Cn1c(=O)c2cc(-c3ccc(C4=NC5(CC5)C(=O)N4C[C@@H]4CCN(C(=O)C5CC5)C4)cc3)ccc2n1C [compound 500, 5-[4-(6-{[(3R)-1-(Cyclopropylcarbonyl)pyrrolidin-3-yl]methyl}-7-oxo-4,6-diazaspiro[2.4]hept-4-rn-5-yl)phenyl]-1,2-dimethyl-1,2-dihydro-3H-indazol-3-one]
23 | 52% | 8.32 µM |  | O=C(C1CC1)N1CC(CN2C(=O)C3(CC3)N=C2c2ccc(-c3ccc4nn(CC5CC5)cc4c3)cc2)C1 [compound 501, 6-{[1-(Cyclopropylcarbonyl)azetidin-3-yl]methyl}-5-{4-[2-(cyclopropylmethyl)-2H-indazol-5-yl]phenyl}-4,6-diazaspiro[2.4]hept-4-en-7-one]
24 | 58% | 5.75 µM |  | Cn1ncc2cc(-c3ccc(C4=NC5(CC5)C(=O)N4CC4CN(C(=O)C5CC5)C4)cc3)cnc21 [compound 503, 6-{[1-(Cyclopropylcarbonyl)azetidin-3-yl]methyl}-5-[4-(1-methyl-1H-pyrazolo[3,4-b]pyridin-5-yl)phenyl]-4,6-diazaspiro[2.4]hept-4-en-7-one]
25 | 42% | 8.51 µM |  | O=C(C1CC1)N1CC(CN2C(=O)C3(CC3)N=C2c2ccc(-c3ccc4oncc4c3)cc2)C1 [compound 504, 5-[4-(1,2-Benzisoxazol-5-yl)phenyl]-6-{[1-(cyclopropylcarbonyl)azetidin-3-yl]methyl}-4,6-diazaspiro[2.4]hept-4-en-7-one]
